From patent publication US20260083751A1, “ALLOSTERIC MODULATORS OF ANDROGEN RECEPTOR COACTIVATOR RECRUITMENT FOR CRPC THERAPY” (University of Pittsburgh – Of the Commonwealth System of …, priority 2022, published 2026)

Legend:
Type in all cases: cell-based
C4-2 cells = experiment: Prostate cancer cell line growth inhibition assay, C4-2; details: C4-2, 72 h; read-out: AR positive C4-2 GI50
Protocol: Prostate Cancer Cell Line Growth Inhibition Assays: The PC-3, DU-145, LNCaP, C4-2, and 22Rv1 PC cell line growth inhibition assays have been described previously (Fancher et al., Assay Drug Dev Technol. 2016, 14:453-477; Fancher et al., Assay Drug Dev Technol. 2019, 17:364-386). On day 1, each PC cell line was harvested, counted, and seeded into two 384-well assay plates, a time zero (T0) and a time 72 h (T72) plate. PC cell lines were all seeded at 1,000 cells per well in 45 μL of tissue culture media in uncoated white clear bottom 384-well assay plates (VWR, #82050-076) using a Matrix electronic multichannel pipette (Thermo Fisher Scientific, Waltham, MA) and cultured overnight at 37° C., 5% CO2, and 95% humidity. On day 2, 25 μL of the CellTiter-Glo® (CTG) (Promega Corporation, Madison, WI) detection reagent was dispensed into the wells of the TO assay plate using a Matrix electronic multichannel pipette, and the RLUs were captured on the SpectraMax® M5e (Molecular Devices LLC, Sunnyvale, CA) microtiter plate reader. Also on day 2, 5 μL of compounds were transferred into the test wells of the T72 384-well assay plates which were returned to the incubator for 72 h. Control wells received DMSO alone. On day 5, 25 μL of the CTG detection reagent was dispensed into the wells of the T72 assay plate using a Matrix electronic multichannel pipette, and the RLU's were captured on the SpectraMax® M5e microtiter plate reader platform.
For the 96-well AR-LBD H^3-DHT radioligand binding assay, eight minimum and maximum plate control wells were utilized to normalize the data. […] To normalize the 72 h compound exposure PC growth inhibition data, the signals from the compound treated wells were processed and expressed as % of the T72 DMSO plate controls. IC50 and GI50 values for each of the bioassays were calculated using GraphPad Prism 9 software to plot and fit data to curves using the Sigmoidal dose response variable slope equation Y=Bottom+[Top-Bottom]/[1+10^(Log EC50−X)*HillSlope].

AR-LBD and SRC1 = target: T1, AR-LBD and SRC1 (Homo sapiens, UniProt P10275); experiment: AR-SRC1 mammalian 2-hybrid assay; details: HEK 293 cells; read-out: Inhibition DHT-induced AR-SRC1 mammalian 2 hybrid assay IC50
T1 construct: AR-LBD amino acids 658-919 expressed as a fusion protein with Gal4-DBD; expressed in transfected cells; host or cells: HEK 293, transient co-transfection
T1 sequence (P10275 658-919): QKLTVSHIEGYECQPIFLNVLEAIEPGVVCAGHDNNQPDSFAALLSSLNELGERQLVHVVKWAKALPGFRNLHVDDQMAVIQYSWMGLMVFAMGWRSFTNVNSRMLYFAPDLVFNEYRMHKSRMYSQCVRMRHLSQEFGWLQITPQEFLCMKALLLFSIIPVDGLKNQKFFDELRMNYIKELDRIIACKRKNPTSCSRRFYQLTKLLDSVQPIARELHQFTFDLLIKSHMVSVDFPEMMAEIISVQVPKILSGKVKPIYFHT
Excerpt: (§1) TIF2 and SRC1 Mammalian 2-Hybrid Assays: The 5×GAL4-TATA-luciferase reporter plasmid was a gift from Dr. Richard Maurer from the Oregon Health and Science University (Gonzalez et al., Cell 1989, 59:675-80), and constructs pGAL4-hAR-658-919 (AR-LBD amino acids 658-919 expressed as a fusion protein with Gal4-DBD) (Askew et al., J Biol Chem 2007, 282:25801-16), pVP16-SRC1 (full-length SRC1 expressed as a fusion with VP16 activation domain) (He et al., J Biol Chem 1999, 274:37219-25) and pVP16-Empty vectors were kindly provided to us by Dr. Elizabeth Wilson, from UNC Chapel Hill. pVP16-TIF2 was generated as described previously (Fancher et al., Assay Drug Dev Technol. 2019, 17:364-386). HEK 293 cells were transiently co-transfected with 5 ng of pGal4-AR-LBD, 10 ng of either pVP16-TIF2 or pVP16-SRC1, and 20 ng of the 5×Gal4-TATA-Luc reporter as described previously (Ibid.). HEK 293 cells were bulk co-transfected with the three plasmids that had been individually incubated with FuGENE® 6 transfection agent (Fugent LLC, Middleton, WI) at a 3:1 ratio for 25 min at room temperature (RT) in serum free media (SFM) and then combined with HEK 293 cells that were suspended in DMEM (Cellgro10013CV) with 2 mM L-glutamine (Invitrogen) that was supplemented with 10% fetal bovine serum, and 5,000 cells in a volume of 40 μL were seeded into the wells of white opaque 384-well assay plates (Greiner Bio-one, #781080) and cultured overnight at 37° C., 5% CO2, and 95% humidity. […] 25 μL of BrightGlo® reagent (Promega, Madison, WI) was added to the plate and the relative luminescence units (RLUs) were captured on a SpectraMax® M5e microtiter plate reader (Molecular Devices, LLC, San Jose, CA).

AR-LBD and TIF2 = target: T2, AR-LBD and TIF2 (Homo sapiens, UniProt P10275); experiment: AR-TIF2 mammalian 2-hybrid assay; details: HEK 293 cells; read-out: Inhibition DHT-induced AR-TIF2 mammalian 2 hybrid assay IC50
T2 construct: AR-LBD amino acids 658-919 expressed as a fusion protein with Gal4-DBD; expressed in transfected cells; host or cells: HEK 293, transient co-transfection
T2 sequence (P10275 658-919): T1 sequence (P10275 658-919)
Excerpt: as §1

GI50 (C4-2 cells) | IC50 (AR-LBD and SRC1) | IC50 (AR-LBD and TIF2) | SMILES
30.7 µM | 0.38 µM | 0.91 µM | Cc1ccccc1-c1cc(O)c2c(c1)CN(c1nc(C(N)=O)cs1)CCO2 [Compound S1-1]
8.66 µM | 0.29 µM | 0.05 µM | Cc1nsc(NC(=O)N2CCC(Sc3ccccc3C)CC2)n1 [Compound S2-6]
6.92 µM | 0.6 µM | 0.89 µM | Cc1c(-c2ccccc2F)[nH]c2ccc(CNC(=O)CCc3cn[nH]c3)cc12 [Compound S3-11]
